In article PMC8286840, “Identifying SARS-CoV-2 antiviral compounds by screening for small molecule inhibitors of Nsp3 papain-like protease” (Biochemical Journal, 2021):
Structures can show the parent of a compound that is named as a salt. Where two headings read alike, the source gives them in different places. Where a SMILES comes first, the peptide text is derived from it. [ ]: non-standard residue; d: D form. The star is where a group is joined. Dolaproine = CO[C@@H]([C@@H]1CCCN1)[C@@H](C)C(=O)O; Hexanoyl(6-maleimido) = O=C1C=CC(=O)N1CCCCCC(=O)*; Dil = CC[C@H](C)[C@H](NC)[C@@H](CC(=O)O)OC; Doe = c1ccc(C[C@H](N*)c2nccs2)cc1; NMeV = CN[C@H](C(=O)O)C(C)C

What was measured:
[1] = molecular target: T1, SARS-CoV-2 PLpro (nsp3 1564–1878) (Severe acute respiratory syndrome coronavirus 2, UniProt P0DTD1); test: biochemical; set-up: FRET-quenched peptide (Pro3) cleavage by PLpro, 10 min pre-incubation, slope over 20 min, normalised to no-compound control; conditions: high concentration screen, read-out: % of control remaining
[2] = molecular target: T1, SARS-CoV-2 PLpro (nsp3 1564–1878); test: biochemical; set-up: FRET-quenched peptide (Pro3) cleavage by PLpro, 10 min pre-incubation, slope over 20 min, normalised to no-compound control; conditions: low concentration screen, read-out: % of control remaining

## COc1ccccc1S(=O)(=O)Nc1ccc2c(c1)CN(C)C(=O)N2 [PFI-1]
[1]; Well no.=4844
  remaining activity at 3.75 µM: 88.7%
[2]; Well no.=4844
  remaining activity at 1.25 µM: 97%

## CC1(C)[C@@H](O[C@H]2O[C@H](C(=O)O)[C@@H](O)[C@H](O)[C@H]2O[C@@H]2O[C@H](C(=O)O)[C@@H](O)[C@H](O)[C@H]2O)CC[C@]2(C)[C@H]3C(=O)C=C4[C@@H]5C[C@@](C)(C(=O)O)CC[C@]5(C)CC[C@@]4(C)[C@]3(C)CC[C@@H]12 [Ammonium Glycyrrhizinate]
[1]; Well no.=8386
  remaining activity at 3.75 µM: 99%
[2]; Well no.=8386
  remaining activity at 1.25 µM: 97.7%

## CN(CCOc1ccc(NS(C)(=O)=O)cc1)CCc1ccc(NS(C)(=O)=O)cc1 [Dofetilide]
[1]; Well no.=1659
  remaining activity at 3.75 µM: 106%
[2]; Well no.=1659
  remaining activity at 1.25 µM: 108%

## Nc1[nH]nc2nnc(-c3c(-c4ccccc4)nn4ccccc34)cc12 [ERK Inhibitor II, FR180204]
[1]; Well no.=2454
  remaining activity at 3.75 µM: 103%
[2]; Well no.=2454
  remaining activity at 1.25 µM: 103%

## COc1cccc(-c2cc(=O)c3ccccc3o2)c1N [PD 98059]
[1]; Well no.=2600
  remaining activity at 3.75 µM: 92%
[2]; Well no.=2600
  remaining activity at 1.25 µM: 94.8%

## CC[C@H](C)[C@@H]([C@@H](CC(=O)N1CCC[C@H]1[C@H](OC)[C@@H](C)C(=O)N[C@@H](Cc1ccccc1)c1nccs1)OC)N(C)C(=O)[C@@H](NC(=O)[C@H](C(C)C)N(C)C(=O)CCCCCN1C(=O)C=CC1=O)C(C)C [Mc-MMAD] ({Hexanoyl(6-maleimido)}-[NMeV]V[Dil][Dolaproine]-Doe)
[1]; Well no.=8610
  remaining activity at 3.75 µM: 91.2%
[2]; Well no.=8610
  remaining activity at 1.25 µM: 95.3%

## NC(N)=Nc1nc(CSCC/C(N)=N/S(N)(=O)=O)cs1 [FAMOTIDINE]
[1]; Well no.=471
  remaining activity at 3.75 µM: 104%
[1]; Well no.=1740
  remaining activity at 3.75 µM: 101%
[1]; Well no.=6622
  remaining activity at 3.75 µM: 106%
[2]; Well no.=471
  remaining activity at 1.25 µM: 103%
[2]; Well no.=1740
  remaining activity at 1.25 µM: 101%
[2]; Well no.=6622
  remaining activity at 1.25 µM: 104%

## Nc1ncnc2c1C(=O)N(c1ccc(C3CCC(CC(=O)O)CC3)cc1)CCO2 (stereo not shown) [{4-[4-(4-amino-5-oxo-7,8-dihydropyrimido[5,4-f][1,4]oxazepin-6(5H)-yl)phenyl]cyclohexyl}acetic acid]
[1]; Well no.=5830
  remaining activity at 3.75 µM: 103%
[2]; Well no.=5830
  remaining activity at 1.25 µM: 105%

## CC1(C)CCC(C)(C)c2cc(NC(=O)c3ccc(C(=O)O)cc3)ccc21 [Tamibarotene]
[1]; Well no.=8108
  remaining activity at 3.75 µM: 101%
[2]; Well no.=8108
  remaining activity at 1.25 µM: 97.6%

## Cc1c(C)c2c(c(C)c1O)CCC(C)(COc1ccc(CC3SC(=O)NC3=O)cc1)O2 (stereo not shown) [Troglitazone]
[1]; Well no.=1630
  remaining activity at 3.75 µM: 99.4%
[2]; Well no.=1630
  remaining activity at 1.25 µM: 101%

## COCCOC(=O)C1=C(C)NC(C)=C(C(=O)OC/C=C/c2ccccc2)C1c1cccc([N+](=O)[O-])c1 (stereo not shown) [Cilnidipine]
[1]; Well no.=1759
  remaining activity at 3.75 µM: 98.3%
[2]; Well no.=1759
  remaining activity at 1.25 µM: 98.8%

## COc1ccc2c(c1)[C@]13CCCC[C@@H]1[C@H](C2)N(C)CC3 [Dextromethorphan hydrobromide monohydrate]
[1]; Well no.=447
  remaining activity at 3.75 µM: 104%
[2]; Well no.=447
  remaining activity at 1.25 µM: 100%

## CC(C)=CCC[C@@H](C)[C@H]1CC[C@H]2[C@@H]3CC=C4C[C@@H](O)CC[C@]4(C)[C@H]3CC[C@]12C [Desmosterol]
[1]; Well no.=5972
  remaining activity at 3.75 µM: 99%
[2]; Well no.=5972
  remaining activity at 1.25 µM: 101%

## CCCCC[C@H](O)/C=C/C=C\C/C=C\C/C=C\CCCC(=O)O [15(S)-HETE]
[1]; Well no.=4289
  remaining activity at 3.75 µM: 97.2%
[2]; Well no.=4289
  remaining activity at 1.25 µM: 102%

## CSc1nc2ccc3nc(NC(=O)C(c4ccccc4)c4ccccc4)sc3c2s1 [Gue1654]
[1]; Well no.=5404
  remaining activity at 3.75 µM: 92.4%
[2]; Well no.=5404
  remaining activity at 1.25 µM: 90.4%

## N[C@@H](CS)C(=O)O [L-Cysteine]
[1]; Well no.=7783
  remaining activity at 3.75 µM: 109%
[2]; Well no.=7783
  remaining activity at 1.25 µM: 107%

## C=C[C@H]1CN2CC[C@H]1C[C@H]2[C@H](O)c1ccnc2ccc(OC)cc12 [Quinine sulfate]
[1]; Well no.=1459
  remaining activity at 3.75 µM: 100%
[2]; Well no.=1459
  remaining activity at 1.25 µM: 98.4%

## C=CC[N+](C)(C)c1ccc(CCC(=O)CCc2ccc([N+](C)(C)CC=C)cc2)cc1 [BW 284c51]
[1]; Well no.=152
  remaining activity at 3.75 µM: 101%
[2]; Well no.=152
  remaining activity at 1.25 µM: 98.6%

## N#CC(c1ccc(Cl)cc1)c1c(Cl)cc(-n2ncc(=O)[nH]c2=O)cc1Cl (stereo not shown) [Diclazuril]
[1]; Well no.=5268
  remaining activity at 3.75 µM: 96.8%
[2]; Well no.=5268
  remaining activity at 1.25 µM: 91.9%

## C[C@H](Nc1ncnc2nc[nH]c12)c1cc2cccc(Cl)c2c(=O)n1-c1ccccc1 [IPI-145 (INK1197)]
[1]; Well no.=5170
  remaining activity at 3.75 µM: 99.5%
[2]; Well no.=5170
  remaining activity at 1.25 µM: 102%

## COC(=O)CC[C@H](NC(=O)[C@H](CC(=O)OC)NC(=O)OCc1ccccc1)C(=O)N[C@H](C(=O)N[C@@H](CC(=O)OC)C(=O)CF)C(C)C [Z-DEVD-FMK]
[1]; Well no.=7172
  remaining activity at 3.75 µM: 99.7%
[1]; Well no.=7636
  remaining activity at 3.75 µM: 91.3%
[2]; Well no.=7172
  remaining activity at 1.25 µM: 102%
[2]; Well no.=7636
  remaining activity at 1.25 µM: 95.2%

## N[C@H](CCCCCP(=O)(O)O)C(=O)O [D(-)-2-Amino-7-phosphonoheptanoic acid]
[1]; Well no.=352
  remaining activity at 3.75 µM: 98.1%
[2]; Well no.=352
  remaining activity at 1.25 µM: 96.5%

## O=C(O)c1cc(=O)c2c(OCC(O)COc3cccc4oc(C(=O)O)cc(=O)c34)cccc2o1 [Disodium Cromoglycate]
[1]; Well no.=1857
  remaining activity at 3.75 µM: 100%
[2]; Well no.=1857
  remaining activity at 1.25 µM: 102%

## C[C@@H]1C[C@H]2O[C@@H]2/C=C\C=C\C(=O)Cc2c(Cl)c(O)cc(O)c2C(=O)O1 [Radicicol]
[1]; Well no.=3124
  remaining activity at 3.75 µM: 98.1%
[2]; Well no.=3124
  remaining activity at 1.25 µM: 95.9%

## CCCCCCCCC(=O)NCc1cc(OC)c(O)cc1I [6-Iodonordihydrocapsaicin]
[1]; Well no.=5963
  remaining activity at 3.75 µM: 99%
[2]; Well no.=5963
  remaining activity at 1.25 µM: 95.9%

## CC(=O)NCCc1ccc(O)c(O)c1 [N-Acetyldopamine monohydrate]
[1]; Well no.=56
  remaining activity at 3.75 µM: 101%
[2]; Well no.=56
  remaining activity at 1.25 µM: 98.3%

## CC(C)=CCC/C(C)=C/COc1ccc2ccc(=O)oc2c1 [Auraptene]
[1]; Well no.=3511
  remaining activity at 3.75 µM: 104%
[2]; Well no.=3511
  remaining activity at 1.25 µM: 101%

## COC(=O)C1=C(C)NC(C)=C(C(=O)OCCN2CCN(C(c3ccccc3)c3ccccc3)CC2)C1c1cccc([N+](=O)[O-])c1 (stereo not shown) [Manidipine]
[1]; Well no.=1788
  remaining activity at 3.75 µM: 99.9%
[2]; Well no.=1788
  remaining activity at 1.25 µM: 104%

## COC1(C2=NCCN2)COc2ccccc2O1 (stereo not shown) [RX 821002 hydrochloride]
[1]; Well no.=1208
  remaining activity at 3.75 µM: 98.7%
[2]; Well no.=1208
  remaining activity at 1.25 µM: 100%

## COc1c(O)cc(O)c2c(=O)cc(-c3ccccc3)oc12 [Wogonin]
[1]; Well no.=3735
  remaining activity at 3.75 µM: 98.6%
[2]; Well no.=3735
  remaining activity at 1.25 µM: 96.1%

## COCCCOc1cc(C[C@@H](C[C@H](N)[C@@H](O)C[C@H](C(=O)NCC(C)(C)C(N)=O)C(C)C)C(C)C)ccc1OC [Aliskiren hemifumarate]
[1]; Well no.=5148
  remaining activity at 3.75 µM: 104%
[2]; Well no.=5148
  remaining activity at 1.25 µM: 107%

## C[C@]12CCC(=O)C=C1CC[C@@H]1[C@@H]2CC[C@]2(C)C(=O)CC[C@@H]12 [4-Androstene-3,17-dione]
[1]; Well no.=154
  remaining activity at 3.75 µM: 99.2%
[2]; Well no.=154
  remaining activity at 1.25 µM: 103%
